Experimental data from ChEMBL document CHEMBL5131450, “Diaryl triazenes inhibit cytochrome P450 1A1 and 1B1 more strongly than aryl morpholino triazenes” (Bioorg Med Chem Lett, 2022).

Legend:
Type in all cases: ADME
[1] = target: T1, {'v': 'CYP1B1', 'o': 'p', 'q': 'Inhibition of CYP1B1 (unknown origin)'} (Homo sapiens, UniProt Q16678); assay: Inhibition of CYP1B1 (unknown origin) assessed as remaining enzyme activity relative to control
T1 sequence (Q16678 whole entry): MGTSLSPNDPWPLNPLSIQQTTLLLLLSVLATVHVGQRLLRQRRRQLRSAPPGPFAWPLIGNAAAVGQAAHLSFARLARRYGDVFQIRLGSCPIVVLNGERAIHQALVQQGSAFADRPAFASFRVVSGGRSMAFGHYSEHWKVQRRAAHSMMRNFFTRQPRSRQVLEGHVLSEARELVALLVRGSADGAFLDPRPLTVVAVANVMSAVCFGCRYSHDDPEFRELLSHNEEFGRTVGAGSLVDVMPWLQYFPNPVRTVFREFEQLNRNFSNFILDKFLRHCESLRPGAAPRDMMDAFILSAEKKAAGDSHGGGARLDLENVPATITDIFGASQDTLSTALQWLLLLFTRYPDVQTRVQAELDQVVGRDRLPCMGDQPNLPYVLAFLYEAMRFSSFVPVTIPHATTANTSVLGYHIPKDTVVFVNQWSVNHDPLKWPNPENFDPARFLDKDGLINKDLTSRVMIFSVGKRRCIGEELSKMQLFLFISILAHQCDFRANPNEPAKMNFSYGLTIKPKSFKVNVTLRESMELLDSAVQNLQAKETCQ

Cytochrome P450 1A1 = target: T2, Cytochrome P450 1A1 (Homo sapiens, UniProt P04798); assay: Inhibition of CYP1A1 (unknown origin)
T2 sequence (P04798 whole entry): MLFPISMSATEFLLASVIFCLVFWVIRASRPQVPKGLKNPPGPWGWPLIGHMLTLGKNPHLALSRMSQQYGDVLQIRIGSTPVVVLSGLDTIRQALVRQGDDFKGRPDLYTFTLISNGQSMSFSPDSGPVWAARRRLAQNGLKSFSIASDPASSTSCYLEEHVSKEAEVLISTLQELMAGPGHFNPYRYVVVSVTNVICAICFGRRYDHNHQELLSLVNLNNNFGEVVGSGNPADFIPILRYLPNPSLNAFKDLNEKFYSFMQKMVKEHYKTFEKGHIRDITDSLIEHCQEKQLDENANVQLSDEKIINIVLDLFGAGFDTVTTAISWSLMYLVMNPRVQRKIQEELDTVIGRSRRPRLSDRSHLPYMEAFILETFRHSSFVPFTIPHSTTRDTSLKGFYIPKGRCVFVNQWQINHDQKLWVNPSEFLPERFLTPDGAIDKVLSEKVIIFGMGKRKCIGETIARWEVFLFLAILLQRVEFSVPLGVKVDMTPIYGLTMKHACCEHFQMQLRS

[2] = target: T3, {'v': 'CYP1A1', 'o': 'p', 'q': 'Inhibition of CYP1A1 (unknown origin)'} (Homo sapiens, UniProt P04798); assay: Inhibition of CYP1A1 (unknown origin) assessed as remaining enzyme activity relative to control
T3 sequence (P04798 whole entry): T2 sequence (P04798 whole entry)

Cytochrome P450 1B1 = target: T4, Cytochrome P450 1B1 (Homo sapiens, UniProt Q16678); assay: Inhibition of CYP1B1 (unknown origin)
T4 sequence (Q16678 whole entry): T1 sequence (Q16678 whole entry)

Row | activity [1] | IC50 (Cytochrome P450 1A1) | activity [2] | IC50 (Cytochrome P450 1B1) | SMILES
1 | 9% | 3 µM | 21% | 0.051 µM | Brc1ccc(/N=N/Nc2ccc(Br)cc2)cc1
2 | 19% | 4 µM | 33% | 0.59 µM | CC(=O)c1ccc(/N=N/Nc2ccc(C(C)=O)cc2)cc1
3 | 8% | – | 96% | 0.74 µM | N#Cc1ccc(/N=N/Nc2ccc(C#N)cc2)cc1

Row | SMILES | activity [1] | IC50 (Cytochrome P450 1A1) | activity [2] | IC50 (Cytochrome P450 1B1)
4 | c1ccc(N=NNc2ccccc2)cc1 | 4% | 8 µM | 9% | 2 µM
